Laboratory results: patent publication US8486947B2, “Treatment of Parkinson's disease, obstructive sleep apnea, dementia with Lewy bodies, vascular dementia with non-imidazole alkylamines histamine H3-receptor ligands” (Bioprojet, priority 2005, dated 2013)

Assays:
[1] = test system: humans suffering from Parkinson; test: Combination with an anti-parkinson drug in humans suffering from Parkinson; type: in vivo, human; details: 40 mg p.o.
Protocol: (§1) Combinations of a compound of the invention and a anti-parkinson drug were tested on rats and humans suffering from Parkinson.

[2] = test system: rats; test: Tolerability of the combinations with acetylcholinesterase inhibitors in rats; type: in vivo, rat; details: combination with donepezil, rivastigmine or gallanthamine
Protocol: (§2) Generally, dementia with Lewi bodies is treated with acetylcholinesterase inhibitors such as donepezil, rivastigmine or gallanthamine. These agents increase the acetylcholine concentration in the is brain extracellular space. Combinations of a compound of the invention and one of these agents were tested on rats. The drug was selected from donepezil, rivastigmine or gallanthamine and administered in combination with 3-(4-Chlorophenyl)propyl 3-piperidinopropyl ether in rats.

[3] = test system: MPTP-treated cats (experimentally induced parkinsonism); test: Sleep-wakefulness patterns by electromyographic and EEG recordings in MPTP-treated parkinsonian cats; type: in vivo, cat; details: oral dose of 10 mg/kg
Protocol: As assessed by electromyographic and EEG recordings, treatment with BF 2.-649 (3-(4-Chlorophenyl)propyl 3-piperidinopropyl ether), a potent and selective H3-antagonist, at an oral dose of 10 mg/kg, normalized these sleep-wakefulness patterns.

[4] = test system: rats suffering from Parkinson; test: Combination with an anti-parkinson drug in rats; type: in vivo, rat
Protocol: as §1

[5] = test system: patients suffering from obstructive sleep apnea (OSA); test: Two clinical studies (single-blinded or double-blinded against placebo, polysomnographical test) in OSA patients; type: in vivo, human; details: 40 mg p.o. once a day during 3 and 7 days
Protocol: Two clinical studies were conducted on patients suffering from obstructive sleep apnea (OSA), in a single-blinded or double-blinded trial against placebo with a polysomnographical test on patients.
In both studies, patients were administered with 3-(4-Chlorophenyl)propyl 3-piperidinopropyl ether at 40 mg p.o. once a day during 3 and 7 days.
In both studies, daytime sleepiness was improved in accordance with the Epworth test or according to the frequency of naps or daytime sleepiness occurrences. The average daytime sleepiness could be reduced by up to 50%.

[6] = test system: acetylcholine concentration in brain; test: Rat brain microdialysis of acetylcholine, combination with acetylcholinesterase inhibitors; type: in vivo; details: rats, co-administered with donepezil, rivastigmine or gallanthamine
Protocol: as §2

[7] = test system: patients with a diagnostic of OSA; test: Single-blind trial against placebo in male patients with obstructive sleep apnea, 3-day treatment; type: in vivo, human; details: 40 mg oral once a day, 3 days
Protocol: In a group of 10 male patients with a diagnostic of OSA, confirmed by polysomnography performed during a night in an hospital setting, an Epswoth score above 12 and a body mass index of less than 35, the effect of a 3-day treatment with BF 2.649 (3-(4-Chlorophenyl)propyl 3-piperidinopropyl ether) was assessed in a single-blind trial against placebo, at a fixed oral dose of 40 mg once a day.
In addition the nocturnal sleep duration was not decreased and its quality was improved. This clinical trial establishes for the first time the utility of H3 antagonists/inverse agonists in OSA.

[8] = test system: histamine H3-receptor; details: literature reports; cited from earlier work
[9] = test system: PD patients; details: cited from earlier work
[10] = test system: Parkinsonian rat (unilateral 6-hydroxydopamine); details: 6-hydroxydopamine rat, co-administered with levodopa; cited from earlier work
[11] = combination with anti-parkinson drug
[12] = combination with ropinirole, lisuride, bromocriptine, levodopa or pramiprexole

Clc1ccc(CCCOCCCN2CCCCC2)cc1 [BF 2.649, 3-(4-Chlorophenyl)propyl 3-piperidinopropyl ether]
dose of the anti-parkinson drug needed [1, 11]: allowed lower doses | motor symptoms [1, 12]: significantly improved | tolerability, in particular cardiovascular parameters [2]: well tolerated | long periods of sleep (model of excessive daytime sleepiness) [3]: largely suppressed | sleep-wakefulness patterns ([3]; EMG and EEG recordings): normalized | dose of the anti-parkinson drug needed [4, 11]: allowed lower doses | motor symptoms [4, 12]: significantly improved | daytime sleepiness (Epworth test, frequency of naps or daytime sleepiness occurrences) [5]: improved | reduction of average daytime sleepiness [5]: up to 50% | increase of the acetylcholine concentration in brain (microdialysis) [6]: potentialised | nocturnal sleep duration [7]: not decreased | nocturnal sleep quality [7]: improved | occurrence of diurnal sleep episodes [7]: total prevention | decrease in the number of diurnal somnolence episodes ([7]; all subjects): more than 60%

CNCCc1ccccn1 [betahistine]
H3-receptor antagonism potency [8]: very low potency

CN(C)CCCSC(=N)N [dimaprit]
H3-receptor antagonism potency [8]: very low potency

NC(=O)C[S+]([O-])C(c1ccccc1)c1ccccc1 (stereo not shown) [modafinil]
treatment of excessive daytime sleepiness [9]: limited success

c1ccc(C2(N3CCCCC3)CCCCC2)cc1 [phencyclidine]
H3-receptor antagonism potency [8]: very low potency

S=C(NC1CCCCC1)N1CCC(c2cnc[nH]2)CC1 [thioperamide]
effect of levodopa on turning behaviour upon co-administration [10]: not modified
